Results taken from patent publication US10532084B2, “Chondrocyte extracellular matrix-derived peptide” (EYEBIO KOREA, priority 2016, dated 2020).

How the values were obtained:
[1] = tested on: conjunctival goblet cells; assay: Distribution of conjunctival goblet cells (PAS staining), dry eye model; assay type: in vivo, NOD.B10.H2b mice
Description: (§1) NOD.B10.H2^b mice were purchased from Jackson Laboratory (Bar Harbor, Me., USA). Animal experiments were carried out in accordance with the guidelines approved by the University of Inje (No.; 2014-029) and ARVO regarding animal use for eye and vision research. NOD.B10.H2^b mice at 12-16 weeks old were exposed to 40-50% ambient humidity and ventilation using a fan for 18 hours a day as dry stress and subcutaneously injected with 0.5 mg/0.2 mL muscarinic receptor blocker. In addition, scopolamine hydrobromide (Sigma-Aldrich, St. Louis, Mo.) was injected alternately to the […] hips four times a day for 10 days at 9 am, […].
(§2) After 10 days of ocular dry stress, the scopolamine injection was stopped, and switched to a normal humidity and temperature environment and the dry stress was removed, 10 mg/ml Hyp-[…] and collagen were dissolved in normal saline to administer 5 μL each 5 times a day for 10 days, and normal saline and 0.1% HA were administered to the eyeball 5 times a day for 10 days. Three mice were used in each of the six experimental groups using both eyes of the mice and all experiments were repeated.
The distribution of conjunctival goblet cells according to eye drop in dry eye mice was observed.

[2] = tested on: rabbit cornea burned with alkali; details: rabbit alkaline burn
Description: The rabbits were randomly divided into an alkaline burn group (n=5) and a peptide treated group (n=5). In the alkaline burn group, normal saline was administered 4 times daily and in the peptide-treated group, Hyp-[…] peptide of 10 mg/mL was administered 4 times daily, and the left eye was used as a control group.

[3] = tested on: VEGF, ICAM and MCP-1; assay: Quantitative real-time RT-PCR of retina and choroid, laser CNV model; assay type: in vivo, C57BL/6 mice; details: mouse, 14 days after laser, 5 μg
Description: In order to confirm the inhibitory effect of hydroxy proline-GQDGLAGPK on neovascularization-related gene expression, RNA was extracted using RNeasy Mini kit (Qiagen) in mixture of retina and choroid of extracted mice eyeballs, and cDNA was synthesized by using oligo(dT) primer and reverse transcriptase. PCR products were amplified using the specific primer set (COSMOGENETECH, Korea) shown in Table 1 and SYBR Green PCR 2X PreMix (Enzynomics) and for the PCR conditions, the samples were incubated at 95° C. for 10 minutes, and 40 PCR cycles at 95° C. for 15 seconds, 60° C. for 30 seconds and 72° C. for 15 seconds, were performed. Relative quantification was calculated using 2-(DDCT) method [Livak and Schmittgen, 2001; DDCT=(CT, target-CT, actin) control group (CT, target-CT, actin) control group].
After 14 days of laser irradiation in mouse, RNA was extracted from retina and choroid to analyze the gene expression by real-time RT-PCR.

[4] = tested on: corneal surface; assay: Corneal surface irregularity (smoothness) score, dry eye model; assay type: in vivo, NOD.B10.H2b mice
Description: as §1, §2
As for the curvature of the corneal surface, a reflected image of the white ring was obtained from an optical fiber ring illumination of a stereoscopic microscope (SZX7; Olympus) after anesthetizing the animal. Corneal smoothness was assessed by grading the irregularity of corneal epithelial cells reflected in the white ring of the digital image. Corneal irregularity severity score was calculated by dividing the reflection ring into quadrants and grading into 5 grades according to degree of irregularity. No irregularity is grade 0, irregularity of ¼ (quarter) is grade 1; irregularity of 2/4 (two-quarters) is grade 2; irregularity of ¾ (three-quarters) is grade 3; entire irregularity is grade 4; and […] and thus all the rings were confirmed.
The degree of corneal curvature in each experiment group was quantified to confirm the bendability of the corneal surface.

“hydroxy proline-GQDGLAGPK [Hyp-GQDGLAGPK]” was tested, and the “goblet cell recovery vs dry stress (DS 10D)” value ([1]; 10 days of treatment) was 2.3 times, the “goblet cells relative to CsA group” value ([1]; 10 days of treatment) was 1.2 times and the “goblet cells relative to DQS group” value ([1]; 10 days of treatment) was 1.5 times. The “goblet cells relative to HA group” value ([1]; 10 days of treatment) was 1.6 times, the “goblet cells relative to collagen group” value ([1]; 10 days of treatment) was 1.3 times and the “goblet cells relative to normal saline group” value ([1]; 10 days of treatment) was 2.6 times. For the same substance, the “distribution of goblet cells in the conjunctiva (in words)” value ([1]; 10 days of treatment after removal of dry stress) was “significantly increased”, the conjunctival goblet cells ([1]; 10 days of treatment after removal of dry stress, normal 14.38±0.44, DS 10D 6.02±0.29) was 13.9±0.83 /0.1 mm^2 and the “corneal neovascularization in H&E stained tissue” value ([2]; 10 days treatment) was “neovascularization was significantly improved”. For the same substance, the “histological changes of the cornea (epithelial proliferation, inflammatory cell invasion, edema, neovascularization)” value ([2]; 10 days treatment, H&E) was “showed an advanced improvement effect”, the corneal thickness ([2]; after 10 days of peptide treatment, normal 526.6, alkaline burn 960.6) was 550.0 μm and the “MCP-1 gene expression in retina and choroid” value ([3]; laser-treated group increased about 10 times) was “significantly decreased”. The “VEGF gene expression in retina and choroid” value ([3]; laser-treated group increased about 55 times) was “decreased to the level similar to that of the laser-untreated group”, the “ICAM gene expression in retina and choroid” value ([3]; laser-treated group increased about 300 times) was “significantly decreased” and the “decrease of corneal surface curvature score vs CsA group” value ([4]; day 10) was 40%. For the same substance, the “decrease of corneal surface curvature score vs DQS group” value ([4]; day 10) was 33.3%, the “decrease of corneal surface curvature score vs HA group” value ([4]; day 10) was 33.3% and the “decrease of corneal surface curvature score vs collagen group” value ([4]; day 10) was 45.5%. For the same substance, the “decrease of corneal surface curvature score vs normal saline group” value ([4]; day 10) was 40%, the “decrease of corneal surface curvature score vs dry stress (DS 10D)” value ([4]; day 10 after removal of dry stress) was 53.8% and the “degree of curvature (irregularity score) of the corneal surface” value ([4]; day 10 after removal of dry stress, grades 0-5, normal 0.33±0.58, DS 10D 4.33±0.58) was 2.0±0 points.
